Measured values taken from patent publication US10668080B2, “Phosphaplatin compounds as therapeutic agents for treatment of bone or blood cancers” (Phosplatin Therapeutics LLC, priority 2017, dated 2020).

Assays:
de novo Vk*MYC mice = assay: Multiple myeloma mouse model, de novo Vk*MYC mice, M-spike levels; type: in vivo
Protocol: (§1) The trans-pyrodach-2 compound is tested on the multiple myeloma mouse model, in particular Vk*MYC mice, which has been reported to be a faithful preclinical model that predicts the clinical activity of drugs in untreated and relapsed MM (Chesi, M., et al., Cancer Cell, 2008, 23, 167-180; Chesi, M., et al., Blood, 2012, 120(2): 376-385). Additionally, the trans-pyrodach-2 compound was tested in mice engrafted with the more aggressive bortezomib resistant Vk12598, and in the multidrug resistant Vk12653 lines, both of which were generated from Vk*MYC mice.
De novo Vk*MYC mice were aged to one year or longer, and M-spike levels were monitored. After the concentrations of the predominant M-spike reached levels of between about 10 and 70 g/L (estimated by densitometry, comparing M-spike to albumin), mice were candidates for starting drug treatment. Mice brought onto the study were dosed either twice weekly (n=2) or thrice (n=1) weekly at a concentration of 100 or 67 mg/kg (R,R)-pyrodach-2, respectively, administered via IP injection after preparation in a phosphate buffer solution. M-spike levels were measured weekly, and post-treatment measurements were compared and normalized to the pre-treatment baseline measurement. Dosing was halted after two weeks of treatment.

Vk12598-engrafted mice = assay: Mice engrafted with bortezomib resistant Vk12598 line, survival; type: in vivo; details: 62.5 mg/kg IP twice a week for two weeks; for survival: versus vehicle control (all died by 21 days)
Protocol: as §1
(§2) Additionally, mice were engrafted with the Vk12598 transplantable line and received vehicle (n=11) or (R,R)-pyrodach-2 at a concentration of 62.5 mg/kg (n=12). Mice engrafted with the Vk12653 transplantable line were likewise treated with vehicle (n=10) or (R,R)-pyrodach-2 at 62.5 mg/kg (n=10). Both Vk12598 and Vk12653 engrafted mice were treated twice a week for two weeks via IP injection and monitored via survival and M-spike levels, respectively.

Vk12653-engrafted mice = assay: Mice engrafted with multidrug resistant Vk12653 line, M-spike levels; type: in vivo; details: 62.5 mg/kg IP twice a week for two weeks
Protocol: as §1, §2

[1] = LA-ICP-MS imaging, distribution and quantification of platinum in mouse whole-body sections; type: in vivo, CD-1 mice; details: (R,R)-pyrodach-2 or derived Pt; treated mice
Protocol: Five CD-1 mice were dosed with (R,R)-pyrodach-2, intravenous (IV), at a concentration of 90 mg/kg, and one additional mouse was dosed with vehicle (phosphate buffer). After dosing, the (R,R)-pyrodach-2 treated mice were euthanized at different time points (45 min, 3 hr, 12 hr, 24 hr, and 72 hr), and the control mouse was euthanized at 45 minutes post dosing. Subsequently, carcasses were snap frozen at −70° C. Slides of full body sagittal plane cross sections were prepared for the control, 45 min, and 24 hr mice. Laser Ablation Inductively Coupled Plasma Mass Spectrometry (LA-ICP-MS) was then used to scan the slides for the concentration of Pt (an atomic component of (R,R)-pyrodach-2) across the entire full body cross sections. Additional slides were prepared from adjacent positions and hematoxylin & eosin (H&E) stained to map the Pt signal to different organs and tissues.
To detect the Platinum element (Pt) by LA-ICP-MS imaging into mouse whole-body sections at 150 μm spatial resolution covering the entire sections in the different section planes for the animals: Treated 45 min, Treated 24 h and Control 45 min (3 sectioning levels per animal).
The mice were sectioned at 20 μm thickness in 3 different section planes with a cryostat and mounted onto ITO glass slides. […]

[2] = system: cancerous cell lines, including leukemia and multiple myeloma cell lines resistant to lenalidomide, dexamethasone, and/or bortezomib; assay: In vitro experiments on several cancerous cell lines; type: cell-based; details: several different cancerous cell lines
Excerpt: Thus, these bone tissues are exposed to (R,R)-pyrodach-2 (or derived Pt) at concentrations much higher than what is normally needed to induce cancer cell death.

[3] = system: metastatic castration resistant prostate cancer (mCRPC); assay: Phase I study, decline in serum alkaline phosphatase in patient with mCRPC; type: in vivo, human; details: 250 mg/m^2 on days 1, 8, 15 of 28 day cycle
Protocol: In an ongoing phase I solid tumor dose escalation study, R,R-pyrodach-2 (PT-112) was given to a patient with mCRPC at a dose of 250 mg/m^2, dosed on days 1, 8, and 15 of a 28 day cycle. The patient enrolled in the study with elevated serum alkaline phosphatase levels, a sign of metastatic bone disease.
Upon treatment start, the patient experienced a rapid decline in serum alkaline phosphatase levels, a sign of anticancer drug activity at cancerous bone lesions. These measurements were fractionated to validate the proportion of the result emanating from bone (vs. liver). The bone proportion represented the vast majority of the result, validating the relationship to the metastatic bone disease in this patient.

[4] = Phase I solid tumor dose escalation study, safety; type: in vivo, human; details: phase I trial; MTD yet to be determined
Protocol: In an ongoing phase I solid tumor dose escalation study, R,R-pyrodach-2 (PT-112) was given to a patient with mBCC at a dose of 150 mg/m^2, dosed on days 1, 8, and 15 of a 28 day cycle.

O=P1(O)OP(=O)(O)[O][Pt]2([NH][C@@H]3CCCC[C@H]3[NH]2)[O]1 (stereo partly drawn) [(R,R)-pyrodach-2, trans-(R,R)-1,2-cyclohexanediamine-(dihydrogenpyrophosphato) platinum(II)]
results compared with approved MM SoC agents (de novo Vk*MYC mice; M-spike response in Vk*MYC model): comparable or superior | tolerability (de novo Vk*MYC mice; given twice or thrice weekly, Vk*MYC mouse model): well tolerated | complete responses (Vk12598-engrafted mice): durable, complete response lasting over six months | survival (Vk12598-engrafted mice): significant increases in survival | survival (Vk12598-engrafted mice; listed as (R,R)-Pyrodach-2): increased survival | M-spike levels in comparison to vehicle control (Vk12653-engrafted mice): statistically significant reduction | M-spike levels in comparison to vehicle control (Vk12653-engrafted mice; listed as (R,R)-Pyrodach-2): repression of M-spike level elevations | distribution to bone compartments [1]: clearly concentrates in bone compartments at very high concentrations over a long period of time | concentrations sufficient to kill cancer cells [2]: low micromolar | serum alkaline phosphatase levels [3]: rapid decline | highest dose deemed to be safe [4]: 360 mg/m^2
